We go through one molecule from patent publication EP2927230A1, “PENTAMETHINIUM SALTS WITH AN EXPANDED QUINOXALINE UNIT AND ITS USE IN ANTICANCER THERAPY” (University of Chemistry and Technology - Prague, priority 2014, dated 2015).

The structures appear in SMILES notation.

The subject of series [1] is human breast carcinoma (MDA-MB-231). As to the kind of experiment: Effect on tumor growth in vivo (subcutaneous xenograft). On the set-up: species or system Nu/nu mice. The text has this:
Effect of salt 1 on tumor growth in vivo. […] The control group (◆) consisted of untreated mice with a tumor.

Series [2] concerns MiaPaCa-2 (human pancreatic carcinoma). As to the kind of experiment: Cytotoxicity (MTT) assay. In kind it is cell-based. Particulars: MiaPaCa-2 cell line. The protocol: (§1) Cells were seeded into 96-well microtitre plates to the expected target cell density (2,500-30,000 cells-well^-1, according to the particular cell line). The inoculant were pre-incubated to stabilize for 24 h (at 37°C and 5 % CO^2). Fourfold dilutions (0-200 µmol·L^-1; in triplicates) of the tested compound 1 were added to the microtitre plate wells at time zero. The cells were treated with compound 1 for 72 h under standard cultivation conditions. Then, the cells were assayed using MTT for 4 h. Produced formazan, arisen by mitochondrial reduction of MTT, was dissolved in 10 % aqueous solution of sodium dodecyl sulphate (pH 5.5; 100 µL·well^-1, hole diameter is 6.54 mm) followed by overnight incubation. […] The absorption of the produced formazan was measured at 540 nm using Labsystem iEMS Reader MF. The tumor cell inhibitory concentration (IC) of compound 1 was calculated using the following equation: IC = (ODdrug / mean ODcontrol) · 100 %. The IC50 (Table 1) value (drug concentration being lethal for 50 % of the cells) was calculated from appropriate dose-response curves. (Noskova, V.; Dz ? ubak, P.; Kuzmina, G.; Ludkova, A.; Stehlik, D.; Trojanec, R.; Jano ? akova, A.; Kor ? inkova, G.; Mihal, V.; Hajduch, M. Neoplasma 2002, 49, 418-425. 38. Hajduch, M.; Mihal, V.; Minar ? ik, J.; Faber, E.; ? afarova, M.; Weigl, E.; Antalek, P. Cytotechnology 1996, 19, 243-245)

Series [3] concerns MCF-7 (breast cancer cells). As to the kind of experiment: Cytotoxicity (MTT) assay. In kind it is cell-based. The note with it: MCF-7 cell line. The protocol:
as §1

The test system of series [4] is U-2 OS (human osteosarcoma). The experiment in a line: Cytotoxicity (MTT) assay. The series is classed as cell-based. Particulars: U-2 OS cell line. The protocol: as §1
Series [5] has as its system LNCaP (human prostate carcinoma). As to the kind of experiment: Cytotoxicity (MTT) assay. The series is classed as cell-based. Particulars: LNCaP cell line. The protocol:
as §1

For series [6], the system named is 4T1(mouse mammary gland carcinoma). The experiment in a line: Cytotoxicity (MTT) assay. Particulars: 4T1 cell line. In kind it is cell-based. On the procedure:
as §1

Series [7] has as its system MDA-MB-231 (human breast carcinoma). As to the kind of experiment: Cytotoxicity (MTT) assay. The series is classed as cell-based. Particulars: MDA-MB-231 cell line. On the procedure: as §1
Series [8] relates to PE/CA-PJ34 (human basaloid squamous cell carcinoma). The experiment in a line: Cytotoxicity (MTT) assay. Particulars: PE/CA-PJ34 cell line. The series is classed as cell-based. On the procedure:
as §1

As for `CCCN1C(=C2C=C(C=Cc3sc4ccccc4[n+]3CCC)c3nc4ccccc4nc32)Sc2ccccc21` [compound 1], in series [1] (Nu/nu mice with MDA-MB-231, after application, for the duration of the experiment (more than 40 days)), the tumor growth entry was “practically stopped”. In addition, the anticancer effect result in series [1] (Nu/nu mice with human breast carcinoma (MDA-MB-231)) was “high anticancer effect”. In addition, the “differences in the tumor volume of control mice versus treated mice” value in series [1] (intravenously, 5 mgkg-1, twice a week, * p<0.05, ** p<0.01, n=5 mice per group) is “Statistically significant differences”. The cytotoxicity result in series [2], in series [3], in series [4], in series [5], in series [6] and in series [7] was “high cytotoxicity” in each case. Moreover, the cytotoxicity result in series [8] is reported as “high cytotoxicity”.
